Results as given in patent publication US9156801B2, “2-substituted oleanolic acid derivative, method preparing for same, and application thereof” (HANGZHOU BENSHENG PHARMACEUTICAL CO., LTD., priority 2011, dated 2015).
In brackets after ≈: the same amount, converted by molar mass.

Legend:
[1] = system: Kasumi-1 cell line; assay: leukemia cell growth inhibition, MTT; format: cell-based; conditions: Homo sapiens; for inhibition at 16 µg/mL: Kasumi-1, 16 μg/mL compound, 72 h, read-out: IR (cell proliferation inhibition rate); for IC50: Kasumi-1, 72 h
Outline: (§1)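 Proliferation inhibition was read by MTT after 72 h of compound exposure (37 °C, 5% CO2), untreated wells defining 0%. Each well held 6000 cells in 1640 medium plus 10% fetal bovine serum, with test compounds at varied concentrations.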

[2] = system: K562/adr cell line; assay: leukemia cell growth inhibition, MTT; format: cell-based; conditions: Homo sapiens, 72 h; for IC50: K562/Adr; for inhibition at 16 µg/mL: K562/adr, 16 μg/mL compound, read-out: IR (cell proliferation inhibition rate)
Outline: as §1

[3] = system: NB4 cell line; assay: leukemia cell growth inhibition, MTT; format: cell-based; conditions: Homo sapiens, NB-4; for inhibition at 16 µg/mL: NB4, 16 μg/mL compound, 72 h, read-out: IR (cell proliferation inhibition rate); for IC50: NB4, 72 h
Outline: as §1

[4] = system: H9 cell line; assay: leukemia cell growth inhibition, MTT; format: cell-based; conditions: Homo sapiens; for IC50: H9, 72 h; for inhibition at 16 µg/mL: H9, 16 μg/mL compound, 72 h, read-out: IR (cell proliferation inhibition rate)
Outline: as §1

[5] = system: Jurkat cell line; assay: leukemia cell growth inhibition, MTT; format: cell-based; conditions: Homo sapiens, 72 h; for inhibition at 16 µg/mL: 16 μg/mL compound, read-out: IR (cell proliferation inhibition rate)
Outline: as §1

[6] = system: RPMI8226 cell line; assay: multiple myeloma cell growth inhibition, MTT; format: cell-based; conditions: Homo sapiens, RPMI-8226; for inhibition at 16 µg/mL: RPMI8226, 16 μg/mL compound, 72 h, read-out: IR (cell proliferation inhibition rate); for IC50: RPMI8226, 72 h
Outline: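 Viability was measured by MTT after a 72 h compound exposure (37° C, 5% CO2) of RPMI8226 myeloma cells seeded at 6000 per well in 1640 medium with 10% fetal bovine serum. Growth inhibition was expressed relative to untreated cells, taken as 0%.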

[7] = system: U87 MG cell line; assay: solid tumor cell growth inhibition, MTT; format: cell-based; conditions: Homo sapiens, U-87 MG, 72 h; for inhibition at 16 µg/mL: 16 μg/mL compound, read-out: IR (cell proliferation inhibition rate)
Outline: (§2)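 MTT read-out of relative living-cell number after a 72 h compound exposure at 37° C, 5% CO2. Cells had been plated at 4000 per well in DMEM high glucose containing 10% fetal bovine serum and allowed 24 h before dosing. Inhibition is referenced to untreated wells set at 0%.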

[8] = system: Hela cell line; assay: solid tumor cell growth inhibition, MTT; format: cell-based; conditions: Homo sapiens, 72 h; for IC50: HeLa; for inhibition at 16 µg/mL: Hela, 16 μg/mL compound, read-out: IR (cell proliferation inhibition rate)
Outline: as §2

[9] = system: CaES-17 cell line; assay: solid tumor cell growth inhibition, MTT; format: cell-based; conditions: Homo sapiens, CaEs17; for inhibition at 16 µg/mL: CaES-17, 16 μg/mL compound, 72 h, read-out: IR (cell proliferation inhibition rate); for IC50: CaES-17, 72 h
Outline: as §2

[10] = system: CNE cell line; assay: solid tumor cell growth inhibition, MTT; format: cell-based; conditions: Homo sapiens, 72 h; for inhibition at 16 µg/mL: 16 μg/mL compound, read-out: IR (cell proliferation inhibition rate)
Outline: as §2

[11] = system: PC-3 cell line; assay: solid tumor cell growth inhibition, MTT; format: cell-based; conditions: Homo sapiens; for IC50: PC-3, 72 h; for inhibition at 16 µg/mL: PC-3, 16 μg/mL compound, 72 h, read-out: IR (cell proliferation inhibition rate)
Outline: as §2

[12] = system: A549 cell line; assay: solid tumor cell growth inhibition, MTT; format: cell-based; conditions: Homo sapiens; for IC50: A549, 72 h; for inhibition at 16 µg/mL: A549, 16 μg/mL compound, 72 h, read-out: IR (cell proliferation inhibition rate)
Outline: as §2

[13] = system: Hep-2 cell line; assay: solid tumor cell growth inhibition, MTT; format: cell-based; conditions: Homo sapiens; for IC50: HEp-2, 72 h; for inhibition at 16 µg/mL: Hep-2, 16 μg/mL compound, 72 h, read-out: IR (cell proliferation inhibition rate)
Outline: as §2

[14] = system: RKO cell line; assay: solid tumor cell growth inhibition, MTT; format: cell-based; conditions: Homo sapiens, 72 h; for inhibition at 16 µg/mL: 16 μg/mL compound, read-out: IR (cell proliferation inhibition rate)
Outline: as §2

[15] = system: Becap37 cell line; assay: solid tumor cell growth inhibition, MTT; format: cell-based; conditions: Homo sapiens; for inhibition at 16 µg/mL: Becap37, 16 μg/mL compound, 72 h, read-out: IR (cell proliferation inhibition rate); for IC50: Becap37, 72 h
Outline: as §2

[16] = system: PANC-1 cell line; assay: solid tumor cell growth inhibition, MTT; format: cell-based; conditions: Homo sapiens; for IC50: PANC-1, 72 h; for inhibition at 16 µg/mL: PANC-1, 16 μg/mL compound, 72 h, read-out: IR (cell proliferation inhibition rate)
Outline: as §2

[17] = system: MG-63 cell line; assay: solid tumor cell growth inhibition, MTT; format: cell-based; conditions: Homo sapiens; for IC50: MG-63, 72 h; for inhibition at 16 µg/mL: MG-63, 16 μg/mL compound, 72 h, read-out: IR (cell proliferation inhibition rate)
Outline: as §2

[18] = system: MGC 803 cell line; assay: solid tumor cell growth inhibition, MTT; format: cell-based; conditions: Homo sapiens; for inhibition at 16 µg/mL: MGC 803, 16 μg/mL compound, 72 h, read-out: IR (cell proliferation inhibition rate); for IC50: MGC 803, 72 h
Outline: as §2

[19] = system: SK-OV-3 cell line; assay: solid tumor cell growth inhibition, MTT; format: cell-based; conditions: Homo sapiens; for IC50: SK-OV-3, 72 h; for inhibition at 16 µg/mL: SK-OV-3, 16 μg/mL compound, 72 h, read-out: IR (cell proliferation inhibition rate)
Outline: as §2

[20] = system: Hep G2 cell line; assay: solid tumor cell growth inhibition, MTT; format: cell-based, human; conditions: Homo sapiens; for inhibition at 16 µg/mL: HepG2, 72 h, Hep G2, 16 μg/mL compound, 72 h, read-out: IR (cell proliferation inhibition rate); for IC50: HepG2, Hep G2, 72 h
Outline: as §2

Row | SMILES | inhibition at 16 µg/mL [1] | IC50 [1] | IC50 [2] | inhibition at 16 µg/mL [2] | inhibition at 16 µg/mL [3] | IC50 [3] | IC50 [4] | inhibition at 16 µg/mL [4] | inhibition at 16 µg/mL [5] | IC50 [5] | inhibition at 16 µg/mL [6] | IC50 [6] | inhibition at 16 µg/mL [7] | IC50 [7] | IC50 [8] | inhibition at 16 µg/mL [8] | inhibition at 16 µg/mL [9] | IC50 [9] | inhibition at 16 µg/mL [10] | IC50 [10] | other results
1 | CCN(CC)CCNC(=O)C1C[C@@]2(C)C(CC[C@]3(C)C2CC=C2C4CC(C)(C)CC[C@]4(C(=O)OC)CC[C@]23C)C(C)(C)C1=O (stereo partly drawn) [BS-OA-012] | 99.3% | 3.18 µg/mL (≈ 5.21 µM) | 1.09 µg/mL (≈ 1.78 µM) | 99% | 99.2% | 2.79 µg/mL (≈ 4.57 µM) | 3.05 µg/mL (≈ 4.99 µM) | 95% | 97% | 2.26 µg/mL (≈ 3.7 µM) | 99% | 0.74 µg/mL (≈ 1.21 µM) | 98.5% | 2.56 µg/mL (≈ 4.19 µM) | 4.19 µg/mL (≈ 6.86 µM) | 96.9% | 99.1% | 1.91 µg/mL (≈ 3.13 µM) | 98.8% | 3.74 µg/mL (≈ 6.12 µM) | IC50 [11]: 5.08 µg/mL (≈ 8.32 µM); inhibition at 16 µg/mL [11]: 99.7%; IC50 [12]: 2.83 µg/mL (≈ 4.63 µM); inhibition at 16 µg/mL [12]: 97.4%; IC50 [13]: 5.5 µg/mL (≈ 9 µM); inhibition at 16 µg/mL [13]: 99.9%; inhibition at 16 µg/mL [14]: 97.6%; IC50 [14]: 2 µg/mL (≈ 3.27 µM); inhibition at 16 µg/mL [15]: 98.4%; IC50 [15]: 4.42 µg/mL (≈ 7.23 µM); IC50 [16]: 4.73 µg/mL (≈ 7.74 µM); inhibition at 16 µg/mL [16]: 100%; IC50 [17]: 2.2 µg/mL (≈ 3.6 µM); inhibition at 16 µg/mL [17]: 100%; inhibition at 16 µg/mL [18]: 100%; IC50 [18]: 2.56 µg/mL (≈ 4.19 µM); IC50 [19]: 3.77 µg/mL (≈ 6.17 µM); inhibition at 16 µg/mL [19]: 98.9%; inhibition at 16 µg/mL [20]: > 96%; IC50 [20]: 2.36 µg/mL (≈ 3.86 µM)
2 | CN(C)CCCNC(=O)C1C[C@@]2(C)C(CC[C@]3(C)C2CC=C2C4CC(C)(C)CC[C@]4(C(=O)O)CC[C@]23C)C(C)(C)C1=O (stereo partly drawn) [BS-OA-109] | 36.2% | > 16 µg/mL | 6.8 µg/mL (≈ 11.7 µM) | 86.2% | 76.6% | 10.8 µg/mL (≈ 18.5 µM) | > 16 µg/mL | 39.4% | 32.3% | > 16 µg/mL | 96% | 6.21 µg/mL (≈ 10.7 µM) | -3.8% | > 16 µg/mL | > 16 µg/mL | 23.6% | 4.1% | > 16 µg/mL | 36.5% | > 16 µg/mL | IC50 [11]: > 16 µg/mL; inhibition at 16 µg/mL [11]: -5.5%; IC50 [12]: > 16 µg/mL; inhibition at 16 µg/mL [12]: 7.5%; IC50 [13]: > 16 µg/mL; inhibition at 16 µg/mL [13]: 11.3%; inhibition at 16 µg/mL [14]: -4.9%; IC50 [14]: > 16 µg/mL; inhibition at 16 µg/mL [15]: 19.7%; IC50 [15]: > 16 µg/mL; IC50 [16]: > 16 µg/mL; inhibition at 16 µg/mL [16]: 12.9%; IC50 [17]: > 16 µg/mL; inhibition at 16 µg/mL [17]: 18.9%; inhibition at 16 µg/mL [18]: 4.9%; IC50 [18]: > 16 µg/mL; IC50 [19]: > 16 µg/mL; inhibition at 16 µg/mL [19]: -13.5%; inhibition at 16 µg/mL [20]: 32.1%; IC50 [20]: > 16 µg/mL
3 | COC(=O)[C@]12CCC(C)(C)CC1C1=CCC3[C@@]4(C)CC(C(=O)NCCc5ccccn5)C(=O)C(C)(C)C4CC[C@@]3(C)[C@]1(C)CC2 (stereo partly drawn) [BS-OA-032] | 48.6% | 16 µg/mL (≈ 25.9 µM) | 12.9 µg/mL (≈ 20.9 µM) | 63.7% | 85.2% | 9.82 µg/mL (≈ 15.9 µM) | 13.6 µg/mL (≈ 22 µM) | 62.3% | 75.4% | 10.8 µg/mL (≈ 17.6 µM) | 30.3% | > 16 µg/mL | 30.4% | > 16 µg/mL | 15.8 µg/mL (≈ 25.7 µM) | 57% | 22% | > 16 µg/mL | 23.6% | > 16 µg/mL | IC50 [11]: > 16 µg/mL; inhibition at 16 µg/mL [11]: 32.5%; IC50 [12]: > 16 µg/mL; inhibition at 16 µg/mL [12]: -6.6%; IC50 [13]: > 16 µg/mL; inhibition at 16 µg/mL [13]: 5.2%; inhibition at 16 µg/mL [14]: -5.3%; IC50 [14]: > 16 µg/mL; inhibition at 16 µg/mL [15]: 4.1%; IC50 [15]: > 16 µg/mL; IC50 [16]: > 16 µg/mL; inhibition at 16 µg/mL [16]: 14.5%; IC50 [17]: > 16 µg/mL; inhibition at 16 µg/mL [17]: 4.7%; inhibition at 16 µg/mL [18]: 14.1%; IC50 [18]: > 16 µg/mL; IC50 [19]: > 16 µg/mL; inhibition at 16 µg/mL [19]: 26.3%; inhibition at 16 µg/mL [20]: 23.7%; IC50 [20]: > 16 µg/mL
